From the supplement of paper PMC10307832

Tests used:
Test in all cases: relative viability (nuclei count vs DMSO), 5 days (fraction); higher = more cells survive
[1] = compound: CC(C)N(CCCNC(=O)Nc1ccc(C(C)(C)C)cc1)C[C@H]1O[C@@H](n2ccc3c(N)ncnc32)[C@H](O)[C@@H]1O + CS(=O)(=O)N1CCN(Cc2cc3nc(-c4cccc5[nH]ncc45)nc(N4CCOCC4)c3s2)CC1 [Pictilisib] (partner 1 µM)
In short: (§1)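 The day after seeding in 1536-well plates, lung cancer cell lines were treated by pin tool with a single drug, or with a fixed anchor-drug dose together with five library-drug doses (not always all listed) in √10 steps. After 5 days, a combined fix-and-stain solution (final 0.05% Triton X-100, 1% formaldehyde, 1 ug/ml Hoechst) was added. Nuclei counted on 4× images gave relative viability as treated counts over vehicle counts, reported as the median of duplicate plates.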

Shikonin + Palbociclib = compound: CC(C)=CC[C@@H](O)C1=CC(=O)c2c(O)ccc(O)c2C1=O [Shikonin] + CC(=O)c1c(C)c2cnc(Nc3ccc(N4CCNCC4)cn3)nc2n(C2CCCC2)c1=O [Palbociclib] (partner 0.5 µM)
In short: as §1

[2] = compound: CC(C)N(CCCNC(=O)Nc1ccc(C(C)(C)C)cc1)C[C@H]1O[C@@H](n2ccc3c(N)ncnc32)[C@H](O)[C@@H]1O + CC(=O)Nc1cccc(-n2c(=O)n(C3CC3)c(=O)c3c(Nc4ccc(I)cc4F)n(C)c(=O)c(C)c32)c1 [Trametinib] (partner 0.02 µM)
In short: as §1

[3] = compound: CC(C)N(CCCNC(=O)Nc1ccc(C(C)(C)C)cc1)C[C@H]1O[C@@H](n2ccc3c(N)ncnc32)[C@H](O)[C@@H]1O + CC(=O)c1c(C)c2cnc(Nc3ccc(N4CCNCC4)cn3)nc2n(C2CCCC2)c1=O [Palbociclib] (partner 0.5 µM)
In short: as §1

Cell Line	relative viability ([1]; first compound 0.08 µM)	relative viability ([1]; first compound 0.253 µM)	relative viability ([1]; first compound 0.8 µM)	relative viability ([1]; first compound 2.53 µM)	relative viability ([1]; first compound 8 µM)	relative viability (Shikonin + Palbociclib; first compound 0.01 µM)	relative viability (Shikonin + Palbociclib; first compound 0.1 µM)	relative viability (Shikonin + Palbociclib; first compound 0.3162 µM)	relative viability (Shikonin + Palbociclib; first compound 1 µM)	relative viability ([2]; first compound 0.08 µM)	relative viability ([2]; first compound 0.253 µM)	relative viability ([2]; first compound 2.53 µM)	relative viability ([2]; first compound 8 µM)	relative viability ([3]; first compound 0.08 µM)	relative viability ([3]; first compound 0.253 µM)	relative viability ([3]; first compound 2.53 µM)	relative viability ([3]; first compound 8 µM)	relative viability ([2]; first compound 0.8 µM)	relative viability ([3]; first compound 0.8 µM)
201T	0.652	0.624	0.571	0.722	0.733	0.346	0.413	0.331	0.387	0.719	0.692	0.733	0.695	0.338	0.352	0.328	0.357		
A549	0.513	0.501	0.53	0.52	0.469														
A-427	0.775	0.644	0.812	0.597	0.77	0.503	0.545	0.528	0.553	0.751	0.816	0.806	0.743	0.525	0.546	0.578	0.515	0.677	0.556
ABC-1	0.623	0.71		0.828	0.701	0.904	0.592	0.892	0.586					0.665	0.868	0.763	0.655		
BEN	0.606	0.497	0.586	0.588	0.586	0.47	0.465	0.437	0.54	1.01	0.92	1.26	1.08	0.446	0.509	0.503	0.445	0.96	0.453
CAL-12T	0.316	0.388	0.398	0.459	0.47	0.414	0.451	0.403	0.438	0.346	0.345	0.323	0.306	0.418	0.341	0.445	0.38	0.362	0.488
COR-L23	0.678	0.606	0.662	0.778	0.735	0.26	0.299	0.306	0.29	0.664	0.374	0.67	0.519	0.302	0.296	0.34	0.304	0.631	0.265
COR-L 105	0.413	0.301	0.408	0.369	0.404	0.447	0.388	0.483	0.402	0.492	0.402	0.465	0.537	0.402	0.397	0.434	0.378	0.496	0.414
Calu-6	0.929	0.91	0.971	0.922	0.882														
ChaGo-K-1	0.771	0.726	0.658	0.632	0.912	0.977	1.09	0.968	0.968	0.91	0.875	0.876	0.843	0.887	0.96	0.928	0.95	0.876	0.959
EBC-1	0.334	0.386	0.338	0.399	0.347														
EKVX	0.454	0.407	0.446	0.468	0.423	0.404	0.389	0.413	0.366	0.392	0.339	0.359	0.327	0.418	0.346	0.433	0.371	0.376	0.41
EMC-BAC-2	0.601	0.49	0.581	0.522	0.502	0.512	0.573	0.538	0.513	0.895	0.851	0.854	0.819	0.507	0.499	0.502	0.485	0.965	0.512
EPLC-272H	0.286	0.253	0.314	0.284	0.322	0.373	0.321	0.336	0.282	0.246	0.273	0.333	0.298	0.365	0.342	0.36	0.398	0.27	0.366
H3255	0.463	0.414	0.442	0.557	0.461	0.316	0.333	0.337	0.303	0.492	0.593	0.587	0.49	0.328	0.33	0.299	0.316	0.483	0.308
HARA	0.506	0.479	0.344	0.311	0.31	0.262	0.285	0.248	0.248	0.736	0.412	0.511	0.508	0.249	0.223	0.208	0.26	0.54	0.311
HCC-15	0.697	0.695	0.643	0.732	0.701	0.781	0.676	0.817	0.724	0.338	0.363	0.362	0.351	0.759	0.709	0.712	0.724	0.401	0.802
HCC-44	0.542	0.644	0.488	0.734	0.578	0.979	0.991	0.984	1	1.11	1.09	1.11	1.18	0.968	1.05	0.931	0.91	0.936	0.845
HCC-78	0.156	0.196	0.263	0.192	0.212	0.459	0.481	0.461	0.413	0.716	0.867	0.586	0.736	0.391	0.484	0.458	0.476	0.804	0.502
HCC-366	0.128	0.157	0.117	0.181	0.194	0.415	0.4	0.316	0.388	0.264	0.36	0.344	0.287	0.34	0.372	0.375	0.396	0.325	0.41
HCC-827	0.951	1.1	0.886	1.07	0.9	0.48	0.517	0.518	0.493	0.499	0.473	0.537	0.505	0.22	0.468	0.477	0.5	0.572	0.32

Cell Line	relative viability ([1]; first compound 0.08 µM)	relative viability ([1]; first compound 0.253 µM)	relative viability ([1]; first compound 0.8 µM)	relative viability ([1]; first compound 2.53 µM)	relative viability ([1]; first compound 8 µM)	relative viability (Shikonin + Palbociclib; first compound 0.01 µM)	relative viability (Shikonin + Palbociclib; first compound 0.1 µM)	relative viability (Shikonin + Palbociclib; first compound 0.3162 µM)	relative viability (Shikonin + Palbociclib; first compound 1 µM)	relative viability ([2]; first compound 0.08 µM)	relative viability ([2]; first compound 0.253 µM)	relative viability ([2]; first compound 2.53 µM)	relative viability ([2]; first compound 8 µM)	relative viability ([3]; first compound 0.08 µM)	relative viability ([3]; first compound 0.253 µM)	relative viability ([3]; first compound 2.53 µM)	relative viability ([3]; first compound 8 µM)	relative viability ([2]; first compound 0.8 µM)	relative viability ([3]; first compound 0.8 µM)
HOP-62	0.723	0.413	0.655	0.776	0.342	0.471	0.581	0.559	0.447	0.349	0.432	0.347	0.38	0.46	0.37	0.361	0.371	0.316	0.356
IA-LM	0.27	0.347	0.447	0.398	0.378														
LC-2-ad	0.612	0.518	0.413	0.511	0.427	0.533	0.483	0.441	0.511	0.848	0.936	0.917	0.855	0.496	0.463	0.51	0.484	0.895	0.495
LCLC-97TM1	0.184		0.147	0.202	0.178	0.293	0.279	0.279	0.23	0.179	0.202	0.193	0.187	0.195	0.247	0.236	0.252	0.184	0.218
LCLC-103H	0.639	0.522	0.703	0.551	0.716	0.462	0.498	0.521	0.429	0.679	0.708	0.653	0.679	0.488	0.47	0.482	0.459	0.662	0.438
LK-2	0.56	0.532	0.651	0.644	0.609	0.772	0.869	0.773	0.664	0.879	0.493	0.636	0.694		0.665	0.775	0.622	0.681	0.845
LOU-NH91	0.537	0.527		0.556	0.545	0.546	0.526	0.549	0.5	0.788	0.768	0.824	0.763	0.538	0.503	0.53	0.611		
LU99A	0.332	0.287	0.411	0.369	0.312	0.457	0.486	0.348	0.38	0.509	0.44	0.504	0.508	0.399	0.387	0.427	0.405	0.519	0.436
LXF-289	0.775	0.752	0.788	0.852	0.738	0.594	0.707	0.618	0.622	0.661	0.684	0.732	0.71	0.705	0.591	0.656	0.652	0.651	0.6
NCI-H23	0.455		0.478	0.568	0.454	0.597	0.543	0.623	0.573	0.336		0.547	0.373	0.517		0.48	0.446	0.361	0.506
NCI-H322M	0.54	0.478	0.566	0.44	0.57	0.479	0.446	0.477	0.489	0.5	0.533	0.475	0.517	0.481	0.488	0.489	0.532	0.544	0.494
NCI-H358	0.356	0.335	0.317	0.359	0.342	0.139	0.132	0.131	0.131	0.135	0.137	0.13	0.138	0.121	0.127	0.135	0.132	0.132	0.143
NCI-H522						1.03	1.28	0.936	1.17	0.633	0.763	0.798	0.845	0.85	1.05	1.09	1.4	0.824	1.09
NCI-H596	0.388	0.412	0.173	0.355	0.414					0.858	0.759	0.753	0.765					0.842	
NCI-H1299	0.944	0.834	0.912	0.76	0.726														
NCI-H1563	0.678	0.607	0.616	0.679	0.636														
NCI-H1648						0.282		0.273	0.238	0.424	0.522	0.419	0.455	0.268	0.315	0.287	0.323	0.406	0.335
NCI-H1703	0.223	0.247	0.257	0.244	0.24														
NCI-H2342						0.499	0.465	0.526	0.537	0.781	0.81	0.656	0.826	0.556	0.533	0.551	0.549	0.692	0.481
SW 900						0.563	0.559	0.547	0.542	0.734	0.78	0.766	0.717	0.564	0.521	0.543	0.473		
